{
  "source": "patent US20100196326A1",
  "about": "“METHOD AND SYSTEM FOR BIASING CELLULAR DEVELOPMENT” (priority 2004, published 2010)",
  "type_in_all_cases": "cell-based, human",
  "key": {"NT2/D1 cells [1]": {"tested_on": "NT2/D1 cells", "test": "cell viability assay (trypan blue) and DNA fragmentation analysis after STS treatment", "protocol": "(§1) The NT2/D1 cells were seeded (5×10^6 cells per 10 cm Petri dish) in Dulbecco's modified Eagle's medium (DMEM/F-12; Invitrogen) supplemented with 10% heat inactivated fetal bovine serum (FBS; Invitrogen), 0.4 μl/ml penicillin-streptomycin (Invitrogen), and 4 mM glutamine (Invitrogen) and maintained in a humidified atmosphere of 5% CO2/95% air at 37° C. For astrocytic differentiation, 1×10^6 cells were seeded in a 6 well plate and treated three times a week for 3 weeks with 40 nM STS (Sigma). Cells were split twice a week by short exposure to trypsin/EDTA (Invitrogen). Subsequently, these NT2/A cells were evaluated for expression of astrocytic markers and […] by RT-PCR and western blot analysis. After incubation with a different time and concentration of STS, cells were trypsinized and viable cells were counted with a hemocytometer using trypan blue exclusive assay."}, "NT2/D1 cells [2]": {"tested_on": "NT2/D1 cells", "test": "STS-induced astrocytic differentiation, morphology by microscopy", "settings": "40 nM STS", "protocol": "as §1\nTypical fluorescent microscopic pictures of the transfected cell were taken 48 hr after the transfection in a 8 well chamber slides. The cells expressing EGFP were detected by green fluorescence."}, "NT2/D1 cells [3]": {"tested_on": "NT2/D1 cells", "test": "RT-PCR of astrocyte specific and APP gene expression in treated NT2 cells", "protocol": "as §1\nTotal RNA was extracted from the cells and 1 μg of the RNA was reverse-transcribed and amplified using the SuperScript™ ONE STEP™ RT-PCR System (Invitrogen) with the following primers."}},
  "note": "“Also recorded” adds a separate entry of the source.",
  "data": [
    {"smiles": "CN[C@@H]1C[C@H]2O[C@@](C)([C@@H]1OC)n1c3ccccc3c3c4c(c5c6ccccc6n2c5c31)C(=O)NC4", "note": "[STS, Staurosporine]", "values": [
      {"measurement": "start of mass cell death", "setting": "NT2/D1 cells [1]; 40 nM STS", "value": 8, "unit": "h"},
      {"measurement": "cell viability and DNA fragmentation", "setting": "NT2/D1 cells [1]; STS treatment", "value": "cell death"},
      {"measurement": "induction of NT2/A cells (astrocytic morphology)", "setting": "NT2/D1 cells [2]", "value": "induced NT2/A cells; also recorded: induces morphological and functional differentiation"},
      {"measurement": "astrocyte specific gene expression (GFAP, LIF, Delta, Jagged-1, BMP-2, 4, BMP-7, GLT-1/EAAT-2, GLAST/EAAT-1)", "setting": "NT2/D1 cells [3]; 40 nM STS, RT-PCR", "value": "induced astrocyte specific gene expression"},
      {"measurement": "APP gene expression", "setting": "NT2/D1 cells [3]; during STS-induced astro-gliogenesis", "value": "increased in time-dependent manner; also recorded: higher expression level"}
    ]}
  ]
}
